The values below come from patent US8946238B2, “Pyrazolo[1,5-A]pyrimidines as antiviral agents” (Gilead Sciences, Inc., priority 2011, dated 2015).

In general, inhibition refers to the share of the control response that was lost under treatment.

This test relates to RSV strain A2. The test can be described thus: RSV antiviral cytoprotection assay in Hep2 cells (RSV-induced cytopathic effect, Cell TiterGlo). The test is classed as cell-based, Respiratory Syncytial Virus (RSV). To be noted: human respiratory syncytial virus, HEp-2, 0.5 μM compound; RSV A2-infected Hep2 cells; % inhibition calculated from 4-parameter dose response curve, normalized to 0% and 100%; read-out: Percent inhibition at 0.5 μM. A digest of the protocol: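 Hep2 cells were infected with RSV A2 and exposed to 3-fold compound dilutions, either 3,000 cells/well for 4 days (96-well) or 2000 cells/well at MOI 1:1000 for 5 days at 37° C. (384-well). Cytopathic effect was read by Cell TiterGlo luminescence, and EC50 or normalized % inhibition came from curve fits against infected and uninfected controls.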

Regarding `Cc1cn2nc([C@@H]3CCCCN3C(=O)c3cc(Cl)ccc3NS(C)(=O)=O)cc2nc1N1CCN[C@@H](C)C1` [Compound 7], the inhibition at 0.5 µM was 100%.

For `Cc1cccc(C(=O)N2CCCC[C@H]2c2cc3nc(N4C[C@@H](C#N)[C@@H](O)C4)c(C)cn3n2)n1` [Compound 176], the inhibition at 0.5 µM is 97%. The result for `Cc1cn2nc([C@@H]3CCCCN3C(=O)c3ccc(F)cc3F)cc2nc1N1CC[C@H](N)C1` [Compound 73] reads 99%.
